Broadly, the melting point is the temperature of the solid-liquid transition.

Regarding `CN(C)c1ccc(C=C2N=C(c3ccccc3)OC2=O)cc1`, the melting point was 204 to 205 °C.

In turn, `O=C1C=CC2(CCC23C=CC(=O)O3)O1` (stereo not given) showed a melting point of 158 °C. The same measure for `O=C(O)C1CCOCC1`: 87 to 89 °C; for `N#CCS(=O)(=O)c1ccc(Cl)cc1`: 171 °C; for `O=C(O)c1ccc(F)cc1Cl`: 185 °C. Regarding `Cn1ccnc1`, the melting point is -6 °C. As for `Nc1ccc2cc(C(=O)O)ccc2c1`, the melting point is 222 to 227 °C. Compound `CNC(=O)Oc1cccc(C(C)C)c1` registered a melting point of 73 °C. The figure for `Cc1nc(Cl)nc(N)c1N` is 249 to 252 °C; for `Brc1cccc(N2CCOCC2)n1` it is 50 to 51 °C.

In turn, `Oc1c(O)c(Br)c(Br)c(Br)c1Br` came in with a melting point of 191 °C. `Cc1cncc(N2CCNCC2)n1` registered a melting point of 49 to 51 °C. The same measure for `O=[N+]([O-])c1cccc2c(/C=N\c3ccccc3)cccc12`: 83 to 84 °C. The figure for `O=C(O)c1cccc2c1-c1ccc(I)cc1C2` is 265 to 267 °C; for `O=C(O)Cc1ccc(OCc2ccccc2)cc1` it is 123 to 124 °C; for `O=C(O)c1ccc(C(F)(F)F)nc1` it is 192 °C. The same measure for `COC(=O)C(Br)C(Br)c1cccc(C(Br)C(Br)C(=O)OC)c1` (stereo not given): 145 °C; for `CNCc1ccc(-c2ccsc2)cc1`: 68 to 69 °C. `COc1ccc(NN=C2C(=O)NC(=S)NC2=O)cc1` had a melting point of 246 °C. The same measure for `Cc1ccc2c(c1)CCCN2`: 35 °C; for `OCC1(O)COC(O)(CO)CO1` (stereo not given): 79 °C. `Cc1cccc(N(C)C(=S)Oc2ccc3c(c2)CCC3)c1` gave a melting point of 94 °C. The figure for `CON=C(C(=O)O)c1csc(N)n1` is 176 to 182 °C. The same measure for `CCOC(=O)c1c(SC)nn(C(N)=S)c1N`: 149 °C. The same measure for `CSc1nc(=O)n2ccccc2n1`: 150 to 151 °C. With `CC(C)(C)c1nc(N)nc(O)n1`, the melting point was determined as 275 °C.

`O=Cc1ccc2ncccc2c1` gave a melting point of 74 to 75 °C.

In turn, `Cc1csc2ncnc(NN)c12` showed a melting point of 182 to 183 °C.

In the case of `OCCNC(=S)C(=S)NCCO`, the melting point came out at 93.3 °C. Turning to `CCCCCCC(=O)CC`, the melting point was -8 °C. Regarding `COCCCN`, the melting point was -65 °C.

`N#CCCCOc1ccccc1` yielded a melting point of 45.5 °C. Regarding `C=C(CC(=O)OCC)C(=O)OCC`, the melting point was 58.5 °C.

On to `Cc1ccc(N/N=C(/C#N)c2nc(-c3ccc(Cl)cc3)cs2)cc1`, for which the melting point stood at 208 °C. The figure for `O=C(Cl)c1ccc2occc2c1` is 67 to 68 °C; for `NC(=S)c1cc(Cl)nc(Cl)c1` it is 145 to 150 °C. As to `O=[N+]([O-])c1ccc2ncsc2c1`, the melting point came out at 175 °C. `CC(O)c1ccc(N)cc1` (stereo not given) yielded a melting point of 70 °C. `CCOc1cc(Cl)c(N)c(Cl)c1` displayed a melting point of 46 °C. In the case of `COC(=O)c1cc(OC)c(C)c(OC)c1`, the melting point amounted to 104 °C. `C/C(=N\CCN)c1c(O)c2ccccc2n(-c2ccccc2)c1=O`: the melting point was more than 300 °C.

Compound `N#C/C(=N\Nc1ccc(S(=O)(=O)O)cc1)c1nc2ccccc2s1` had a melting point of 193 °C. On to `CC(=O)OC1C2=C(C(=O)C(O)C3(CC3C)C2=O)C2(C)CCC(C)=C(C)C2C1O` (stereo not given), for which the melting point was 177 to 178 °C.

In turn, `CCCCNC(=O)c1ccc2cc(O)c(O)cc2c1` showed a melting point of 194 °C.

In turn, `O=c1c(Cl)c(Cl)cnn1-c1ccc(F)c(Cl)c1` showed a melting point of 201 to 203 °C. The figure for `O=[N+]([O-])c1ccc(C2Nn3c(COc4ccccc4)nnc3S2)cc1` (stereo not given) is 184 °C; for `CC1(C)OC(=O)C(=Cc2cccs2)C(=O)O1` it is 182 °C; for `CCSC(SCC)=C(C#N)c1ccccn1` it is 160 to 162 °C. The figure for `CCCCCCCCCCCCOS(=O)(=O)c1ccc(C)cc1` is 28.5 to 31.5 °C; for `C=CC(C)(O)CCC1C(C)(O)CCC2C(C)(C)CCCC21C` (stereo not given) it is 97 °C. The figure for `COc1ccc(C(c2c(O)cc(C)oc2=O)c2c(O)cc(C)oc2=O)cc1` is 163 to 165 °C. Take `N[C@H]1CC[C@@H](C(=O)O)CC1`: the melting point is 300 °C. The same measure for `C=C1CCC2(O)C3Cc4ccc(O)c5c4C2(CCN3CC2CC2)C1O5` (stereo not given): 189 °C; for `O=C(c1ccccc1)c1cc([N+](=O)[O-])ccc1Cl`: 83 to 86 °C. As to `Cc1ccc2[nH]c(C)c(C)c2c1`, the melting point amounted to 122 °C.

Take `CCOC(=O)Cc1n[nH]c2ccc(Cl)cc12`: the melting point is 77 °C.

`CC(=O)c1cccc(-c2ccccc2)c1` had a melting point of 36 °C.

On to `N#Cc1ccc2cccc(O)c2n1`, for which the melting point lay within 131 to 136 °C. As to `COc1ccc(OCc2ccccc2)cc1`, the melting point fell in the range of 71 to 73 °C. On to `Cc1ccc(C(=O)NC(=Cc2ccccc2)C(=O)O)cc1`, for which the melting point is 229 to 230 °C. The figure for `C/C(=N\CC(O)CO)c1c(O)c2ccccc2n(-c2ccccc2)c1=O` (stereo not given) is 217 to 218 °C; for `N#Cc1cc([N+](=O)[O-])ccc1Sc1ccc(Cl)cc1` it is 167 to 168 °C. The same measure for `Nc1ncccc1I`: 90 °C; for `CC(=O)c1cc(C(C)=O)c(N)cc1N`: 235 °C. In turn, `CC(=O)OCC12CC(OC(=O)CC(C)C)C(C)=CC1OC1C(O)C(OC(C)=O)C2(C)C12CO2` (stereo not given) showed a melting point of 152 °C. The same measure for `O=C(O)C1CN(C(c2ccccc2)c2ccccc2)C1`: 178 to 180 °C; for `CCCCCCN1CC(C(=O)O)CC1=O` (stereo not given): 42.5 °C; for `CCOC`: -113 °C. As for `CCOC(=O)c1c(NS(=O)(=O)c2ccc(Cl)cc2)nn(-c2ccc([N+](=O)[O-])cc2)c1N`, the melting point is 200 °C. With `CC(C)(C)NC(=O)NN`, the melting point lay in the range of 119 to 120 °C.

Compound `C=CC(=O)NCO` registered a melting point of 74.5 °C. The figure for `N#C/C(=N/Nc1ccccc1Cl)c1nc(-c2ccccc2)cs1` is 160 °C; for `Cc1ccc(SSc2ccc(C)cc2)cc1` it is 47.5 °C; for `CCc1cn(C2CC(O)C(CO)O2)c(=O)[nH]c1=O` (stereo not given) it is 152 °C. The figure for `CCSc1ncccc1C(=O)Cl` is 53 to 55 °C.

In turn, `O=C(OCCOC(=O)c1ccccc1)c1ccccc1` showed a melting point of 73.5 °C. Regarding `O=C(Cl)c1ccc2c(c1)OCO2`, the melting point was in the range of 80 to 81 °C. Consider `CCc1cc2c(cc1C(C)=O)C(C)(C)CCC2(C)C`, for which the melting point was determined as 46.5 °C. `CN1C(=O)CC[C@H]1c1cccnc1` showed a melting point of 41 °C. The same measure for `NC(C(=O)O)C(O)c1ccccc1` (racemic): 186 °C.
